SMILES strings stand for the structures.

As to `C[Si](C)(C)O[Si](C)(C)O[Si](C)(C)O[Si](C)(C)Cl` [1-Chlorononamethyltetrasiloxane], the flash point is 74.00 °C.
With `CCCCCC#C[Si](C)(C)C` [1-Heptynyltrimethylsilane], the flash point worked out at 42.00 °C.
Turning to `C=C[Si]1(C)O[Si](C)(C=C)O[Si](C)(C=C)O[Si](C)(C=C)O1` (stereo unspecified) [2,4,6,8-Tetravinyl-2,4,6,8-tetramethylcyclotetrasiloxane], the flash point was 112.00 °C.
`C=C(CCl)C[Si](C)(C)C` [2-Chloromethyl-3-trimethylsilyl-1-propene]: the flash point came to 43.00 °C.
With `C[Si](Cl)(Cl)CCC#N` [2-Cyanoethylmethyldichlorosilane], the flash point came to 60.00 °C.
To `CCO[Si](CCC#N)(OCC)OCC` [2-Cyanoethyltriethoxysilane] belongs 86.00 °C; to `C[Si](C)(C)C1C=CCC1` (stereo unspecified) [3-(Trimethylsilyl)cyclopentene], 26.00 °C; to `CO[Si](CCCCl)(OC)OC` [3-Chloropropyltrimethoxysilane], 75.00 °C.
`C=CCO[Si](C)(C)C` [Allyloxytrimethylsilane] returned a flash point of 0.00 °C.
As to `C[Si](C)(C)Cc1ccccc1` [Benzyltrimethylsilane], the flash point was determined as 62.00 °C.
The compound `CCN(CC)[Si](C)(C)N(CC)CC` [Bis(diethylamino)dimethylsilane] had a flash point of 35.00 °C.
In turn, `CN(C)[Si](C)(C)N(C)C` [Bis(dimethylamino)dimethylsilane] had a flash point of -7.00 °C.
Compound `C[Si](C)(Cl)CBr` [Bromomethyldimethylchlorosilane] gave a flash point of 41.00 °C.
For `C[Si](C)(Cl)CCC(F)(F)F` [Chlorodimethyl(3,3,3-trifluoropropyl) silane], the flash point worked out at 20.00 °C.
Compound `Cl[Si](Cl)(Cl)C1CCCCC1` [Cyclohexyltrichlorosilane] gave a flash point of 85.00 °C.
As to `C[Si](C)(C)C1C=CC=C1` [Cyclopentadienyltrimethylsilane], the flash point came out at 29.00 °C.
With `Cl[SiH](Cl)C1CCCC1` [Cyclopentyldichlorosilane], the flash point was 43.00 °C.
For `C[Si]1(C)O[Si](C)(C)O[Si](C)(C)O[Si](C)(C)O[Si](C)(C)O1` [Decamethylcyclopentasiloxane] the value was 77.00 °C; for `CC(C)(C)[Si](C)(Cl)C(C)(C)C` [Di-t-butylmethylchlorosilane], 69.00 °C.
For the compound `C[Si](Cl)(Cl)C(Cl)Cl` [Dichloromethylmethyldichlorosilane], the flash point stood at 28.00 °C.
Consider `CC[SiH2]CC` [Diethylsilane], for which the flash point was -20.00 °C.
For the compound `C[SiH](C)c1c(F)c(F)c(F)c(F)c1F` [Dimethyl(pentafluorophenyl) silane], the flash point stood at 40.00 °C.
The compound `C[SiH](C)Cl` [Dimethylchlorosilane] registered a flash point of -28.00 °C.
Compound `C[Si](C)(Cl)Cl` [Dimethyldichlorosilane] registered a flash point of -16.00 °C.
For `CCO[Si](C)(C)OCC` [Dimethyldiethoxysilane], the flash point was 11.00 °C.
In turn, `CO[Si](C)(C)OC` [Dimethyldimethoxysilane] gave a flash point of -8.00 °C.
`Cl[Si](Cl)(c1ccccc1)c1ccccc1` [Diphenyldichlorosilane]: the flash point was 142.00 °C.
`CO[Si](OC)(c1ccccc1)c1ccccc1` [Diphenyldimethoxysilane] returned a flash point of 121.00 °C.
Turning to `C=C[Si](C)(C)C=C` [Divinyldimethylsilane], the flash point was 8.00 °C.
Take `C[Si](C)(C)O[Si](C)(C)O[Si](C)(C)O[Si](C)(C)O[Si](C)(C)C` [Dodecamethylpentasiloxane]: the flash point is 79.00 °C.
`CC[Si](C)(C)Cl` [ETHYLDIMETHYLCHLOROSILANE] returned a flash point of -4.00 °C.
For `CCO[Si](C)(C)C` [Ethoxytrimethylsilane] the value was -27.00 °C; for `CC[Si](OC(C)=O)(OC(C)=O)OC(C)=O` [Ethyltriacetoxysilane], 104.00 °C.
Turning to `CN([Si](C)(C)C)[Si](C)(C)C` [Heptamethyldisilazane], the flash point was found to be 27.00 °C.
`CCCCCCCCCCCCCCCC[Si](Cl)(Cl)Cl` [Hexadecyltrichlorosilane] gave a flash point of 154.00 °C.
Compound `C[Si]1(C)O[Si](C)(C)O[Si](C)(C)O1` [Hexamethylcyclotrisiloxane] yielded a flash point of 32.00 °C.
Regarding `C[Si](C)(C)[Si](C)(C)C` [Hexamethyldisilane], the flash point was -1.00 °C.
With `C[Si](C)(C)N[Si](C)(C)C` [Hexamethyldisilazane], the flash point was 8.00 °C.
To `CCCCCC[Si](OC)(OC)OC` [Hexyltrimethoxysilane] belongs 62.00 °C; to `CC(C)C[Si](Cl)(Cl)Cl` [Isobutyltrichlorosilane], 37.00 °C; to `CO[Si](C)(OC)c1ccccc1` [Methyl phenyldimethoxysilane], 76.00 °C.
In turn, `C[Si](Cl)(c1ccccc1)c1ccccc1` [Methyldiphenylchlorosilane] registered a flash point of 138.00 °C.
The compound `CCO[Si](C)(OCC)OCC` [Methyltriethoxysilane] had a flash point of 24.00 °C.
Take `CO[Si](C)(OC)OC` [Methyltrimethoxysilane]: the flash point was determined as 11.00 °C.
As for `C[Si](C)(C)O[Si](C)(C)O[Si](C)(C)C` [Octamethyltrisiloxane], the flash point was 30.00 °C.
In turn, `C[SiH](C)O[Si](C)(C)C` [Pentamethyldisiloxane] gave a flash point of -19.00 °C.
In turn, `F[Si](F)(F)c1ccccc1` [Phenyl trifluorosilane] yielded a flash point of -5.00 °C.
To `C[Si](C)(Cl)c1ccccc1` [Phenyldimethylchlorosilane] belongs 61.00 °C; to `[SiH3]c1ccccc1` [Phenylsilane], 8.00 °C; to `Cl[Si](Cl)(Cl)c1ccccc1` [Phenyltrichlorosilane], 91.00 °C.
Take `CCO[Si](OCC)(OCC)c1ccccc1` [Phenyltriethoxysilane]: the flash point was found to be 120.00 °C.
For the compound `C#CCO[Si](C)(C)C` [Propargyloxytrimethylsilane], the flash point stood at 27.00 °C.
On to `CCC[Si](O[SiH](C)C)(O[SiH](C)C)O[SiH](C)C` [Propyltris(dimethylsiloxy)silane], for which the flash point is 50.00 °C.
For `CCCO[Si](OCCC)(OCCC)OCCC` [Tetra-n-propoxysilane] the value was 95.00 °C.
`C[Si](C)(C)O[Si](C)(C)O[Si](C)(C)O[Si](C)(C)O[Si](C)(C)O[Si](C)(C)C` [Tetradecamethylhexasiloxane]: the flash point worked out at 102.00 °C.
With `CO[Si](OC)(OC)OC` [Tetramethoxysilane], the flash point came out at 21.00 °C.
`C[Si](C)(C)C` [Tetramethylsilane] registered a flash point of -28.00 °C.
In turn, `Cl[Si](Cl)(Cl)CCc1ccccc1` [Trichloro(2-phenylethyl)silane] gave a flash point of 91.00 °C.
To `FC(F)(F)CC[Si](Cl)(Cl)Cl` [Trichloro(3,3,3-trifluoropropyl)silane] belongs 15.00 °C; to `ClC[Si](Cl)(Cl)Cl` [Trichloro(Chloromethyl) silane], 69.00 °C.
For `Clc1cccc([Si](Cl)(Cl)Cl)c1Cl` [Trichloro(dichlorophenyl)silane], the flash point was determined as 146.00 °C.
To `CC(C)[SiH](C(C)C)C(C)C` [Triisopropylsilane] belongs 37.00 °C; to `CO[SiH](OC)OC` [Trimethoxysilane], -9.00 °C; to `C[Si](C)(C)Br` [Trimethyl bromosilane], -3.00 °C.
`CCCO[Si](C)(C)C` [Trimethyl-n-propoxysilane] yielded a flash point of 10.00 °C.
To `C[Si](C)(C)F` [Trimethylfluorosilane] belongs -35.00 °C.
The compound `C[Si](C)(C)N=C=S` [Trimethylsilylisothiocyanate] yielded a flash point of 35.00 °C.
For `CN(C)[SiH](N(C)C)N(C)C` [Tris(dimethylamino)silane] the value was 25.00 °C; for `C[Si](C)(C)O[SiH](O[Si](C)(C)C)O[Si](C)(C)C` [Tris(trimethylsiloxy)silane], 50.00 °C.
With `C=C[Si](C)(CC)CC` [Vinyldiethylmethylsilane], the flash point came to 15.00 °C.
With `C=C[Si](OC(C)=O)(OC(C)=O)OC(C)=O` [Vinyltriacetoxysilane], the flash point amounted to 88.00 °C.
Compound `C=C[Si](OCC)(OCC)OCC` [Vinyltriethoxysilane] gave a flash point of 34.00 °C.
In turn, `C=C[Si](OCCOC)(OCCOC)OCCOC` [Vinyltris(methoxyethoxy)silane] showed a flash point of 80.00 °C.
To `C[Si](C)(C)CCOCCl` [[2-(chloromethoxy)ethyl]trimethylsilane] belongs 46.00 °C.
`CCO[Si](CCCS)(OCC)OCC` [[3-(mercapto)propyl]triethoxysilane] registered a flash point of 87.78 °C.
The compound `CCCC[Si](Cl)(Cl)Cl` [n-Butyltrichlorosilane] came in with a flash point of 54.00 °C.
For `CCCCCCCCCC[Si](C)(Cl)Cl` [n-Decylmethyldichlorosilane] the value was 120.00 °C; for `CCCCCCCCCCCC[Si](Cl)(Cl)Cl` [n-Dodecyltrichlorosilane], 162.00 °C.
`CCCCCCCC[Si](C)(C)Cl` [n-Octyldimethylchlorosilane] gave a flash point of 97.00 °C.
Take `CCCCCCCC[Si](Cl)(Cl)Cl` [n-Octyltrichlorosilane]: the flash point was found to be 96.00 °C.
In turn, `CCC[Si](C)(Cl)Cl` [n-Propylmethyldichlorosilane] had a flash point of 27.00 °C.

For the origin of these results see a flash point compilation (Sun et al. 2020).
